Assay results from patent US6294674A, “Dibenzofuran sulfonamide matrix metalloproteinase inhibitors” (priority 1999, dated 2001).
Where two headings read alike, the source gives them in different places.

Experiments:
[1] = biological target: gelatinase A catalytic domain (MMP02); experiment: Thiopeptolide assay, gelatinase A catalytic domain (GCD, MMP02); format: biochemical
Procedure: (§1) Hydrolysis of the thiopeptolide substrate Ac-Pro-Leu-Gly-thioester-Leu-Leu-Gly-OEt (Bachem) is used as the primary screen to determine IC50 values for MMP inhibitors. A 100 μL reaction contains 1 mM 5,5'-dithiobis(2-nitrobenzoic acid) (DTNB), 100 μM substrate, 0.1% Brij, enzyme, and inhibitor in the appropriate reaction buffer. Activated full-length enzymes are assayed at 5 nM, Stromelysin Catalytic Domain (SCD) at 10 nM, and Gelatinase A Catalytic Domain (GaCD) at 1 nM. Inhibitors are screened from 100 μM to 1 nM. Full-length enzymes are assayed in 50 mM HEPES, 10 mM CaCl2, pH 7.0; SCD in 50 mM MES, 10 mM CaCl2, pH 6.0; and GaCD in 50 mM MOPS, 10 mM CaCl2, 10 μM ZnCl2, pH 7.0.

[2] = biological target: T1, stromelysin-1 catalytic domain (MMP03) (Homo sapiens, UniProt P08254); experiment: Thiopeptolide assay, stromelysin-1 catalytic domain (SCD, MMP03); format: biochemical
T1 construct: SCD (stromelysin-1 catalytic domain); made in house; host or cells: Escherichia coli
Procedure: as §1

MMP07 = biological target: T2, MMP07 (Homo sapiens, UniProt P09237); experiment: Thiopeptolide assay, MMP07; format: biochemical
T2 construct: made in house; host or cells: Escherichia coli
T2 sequence (P09237 95-267): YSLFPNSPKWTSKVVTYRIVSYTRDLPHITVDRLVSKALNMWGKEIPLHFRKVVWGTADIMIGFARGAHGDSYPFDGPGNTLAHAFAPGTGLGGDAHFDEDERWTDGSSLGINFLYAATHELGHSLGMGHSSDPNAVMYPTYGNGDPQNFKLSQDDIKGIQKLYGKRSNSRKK
Procedure: (§2) MMP01, MMP07, MMP09, and MMP13 activity was assayed in a method similar to MMP02 and MMP03 (SCD and GCD). MMP01 and MMP09 can be obtained from Washington University School of Medicine, St. Louis, Mo. MMP07 can be obtained in accordance with the known procedure set forth by Ye QZ, Johnson L. L., and Baragi V., "Gene Syntheses and Expression in E. coli for PUMP, a Human Matrix Metalloproteinase" Biochem. and Biophys. […] MMP 13 can be obtained in accordance with the known procedure set forth by Freije J. M. P., et al., "Molecular Cloning and Expression of Collegenase-3, a Novel Human Matrix Metalloproteinase Produced by Breast Carcinomas" J. Bio.
as §1

MMP01 = biological target: T3, MMP01 (Homo sapiens, UniProt P03956); experiment: Thiopeptolide assay, MMP01; format: biochemical
T3 construct: purchased Washington University School of Medicine, St. Louis, Mo
T3 sequence (P03956 100-469): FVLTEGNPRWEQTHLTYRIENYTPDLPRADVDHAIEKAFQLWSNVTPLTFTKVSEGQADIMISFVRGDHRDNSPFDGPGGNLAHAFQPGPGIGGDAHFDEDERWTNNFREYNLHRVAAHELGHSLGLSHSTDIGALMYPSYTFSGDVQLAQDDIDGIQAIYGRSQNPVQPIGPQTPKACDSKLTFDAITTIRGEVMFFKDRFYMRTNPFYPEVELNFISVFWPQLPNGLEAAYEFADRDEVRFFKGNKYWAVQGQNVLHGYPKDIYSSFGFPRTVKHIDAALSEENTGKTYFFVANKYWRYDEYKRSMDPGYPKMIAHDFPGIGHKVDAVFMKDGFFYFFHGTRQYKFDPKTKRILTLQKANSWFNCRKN
Procedure: as §2, §1

MMP-13CD = experiment: Thiopeptolide assay, MMP-13CD; format: biochemical, human; settings: Tables 2, 3, 5, 7
Procedure: IC50 values were determined using a thiopeptolide substrate, Ac-Pro-Leu-Gly-thioester-Leu-Leu-Gly-OEt (Ye Q.-Z., Johnson L. L., Hupe D. J., and Baragi V., "Purification and Characterization of the Human Stromelysin Catalytic Domain Expressed in Escherichia coli," Biochemistry, 1992;31:11231-11235). MMP01, MMP07, MMP09, and MMP13 activity was assayed in a method similar to MMP02 and MMP03 (SCD and GCD). MMP01 and MMP09 can be obtained from Washington University School of Medicine, St. Louis, Mo. MMP07 can be obtained in accordance with the known procedure set forth by Ye QZ, Johnson L. L., and Baragi V., "Gene Syntheses and Expression in E. coli for PUMP, a Human Matrix Metalloproteinase" Biochem. and Biophys. Res. Comm., 1992; 186:143-149. MMP 13 can be obtained in accordance with the known procedure set forth by Freije J. M. P., et al., "Molecular Cloning and Expression of Collegenase-3, a Novel Human Matrix Metalloproteinase Produced by Breast Carcinomas" J. Bio. Chem., 1994;269:16766-6773.
as §1, with “7.0. The change in absorbance at 405 riM is monitored on a ThermoMax microplate reader at room temperature continuously for 20 minutes.” for “7.0.”

[3] = Table 1, GCD, read-out: IC50 MMP02
[4] = Table 1, SCD, read-out: IC50 MMP03
[5] = Tables 2, 3, 5, 7, read-out: IC50 MMP-7
[6] = Tables 2, 3, 5, 7, read-out: IC50 MMP1
[7] = Tables 2, 3, 5, 7, read-out: IC50 MMP-2CD
[8] = Tables 2, 3, 5, 7, read-out: IC50 MMP 3CD

T1 sequence (P08254 100-272 limits assumed): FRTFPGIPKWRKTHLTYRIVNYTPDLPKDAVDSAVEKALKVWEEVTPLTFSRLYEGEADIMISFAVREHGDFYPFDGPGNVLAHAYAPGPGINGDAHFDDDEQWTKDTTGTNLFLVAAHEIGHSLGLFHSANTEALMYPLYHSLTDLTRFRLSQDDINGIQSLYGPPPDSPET

Row | IC50 [1, 3] [µM] | IC50 [2, 4] [µM] | IC50 (MMP07; Table 1, read-out: IC50 MMP07) [µM] | IC50 (MMP01; Table 1, read-out: IC50 MMP01) [µM] | IC50 (MMP07; [5]) [µM] | IC50 (MMP01; [6]) [µM] | IC50 [1, 7] [µM] | IC50 (MMP-13CD) [µM] | IC50 [2, 8] [µM] | Structure (SMILES)
1 | 100 | 86 |  |  |  |  |  |  |  | CC(C)C[C@H](CNS(=O)(=O)c1ccc2oc3ccccc3c2c1)CC(=O)O [Example 2, 2(S)-3-[(Dibenzofuran-2-sulfonylamino)-methyl]-5-methyl-hexanoic acid]
2 | 0.35 | 0.18 | 3.3 | 62 |  |  |  |  |  | O=C(NCCCC[C@H](NS(=O)(=O)c1ccc2oc3ccccc3c2c1)C(=O)O)OCc1ccccc1 [Example 3, 6-Benzyloxycarbonylamino-2-(dibenzofuran-2-sulfonylamino)-hexanoic acid]
3 |  |  |  |  | > 100 | > 100 | 5.2 | 11 | 9.6 | CC(C)(Oc1ccc(Cl)cc1)C(=O)NCCCCC(NS(=O)(=O)c1ccc2oc3ccccc3c2c1)C(=O)O (stereo not drawn) [Example A1, 6-[2-(4-Chloro-phenoxy)-2-methyl-propionylamino]-2-(dibenzofuran-2-sulfonylamino)-hexanoic acid]
4 |  |  |  |  | > 100 | > 100 | 2.7 | 3.7 | 4.6 | O=C(Cc1ccccc1C(F)(F)F)NCCCCC(NS(=O)(=O)c1ccc2oc3ccccc3c2c1)C(=O)O (stereo not drawn) [Example A4, 2-(Dibenzofuran-2-sulfonylamino)-6-[2-(2-trifluoromethyl-phenyl)-acetylamino]-hexanoic acid]
5 |  |  |  |  | 35.6 | > 100 | 0.9 | 1.1 | 0.5 | O=C(Cc1cccs1)NCCCCC(NS(=O)(=O)c1ccc2oc3ccccc3c2c1)C(=O)O (stereo not drawn) [Example A5, 2-(Dibenzofuran-2-sulfonylamino)-6-(2-thiophen-2-yl-acetylamino)-hexanoic acid]
6 |  |  |  |  | > 100 | > 100 | 1.5 | 8 | 3.9 | CCC(Oc1ccccc1)C(=O)NCCCCC(NS(=O)(=O)c1ccc2oc3ccccc3c2c1)C(=O)O (stereo not drawn) [Example A6, 2-(Dibenzofuran-2-sulfonylamino)-6-(2-phenoxy-butrylamino)-hexanoic acid]
7 |  |  |  |  | > 100 | > 100 | 1.6 | 4.8 | 2.5 | O=C(COc1ccccc1)NCCCCC(NS(=O)(=O)c1ccc2oc3ccccc3c2c1)C(=O)O (stereo not drawn) [Example A8, 2-(Dibenzofuran-2-sulfonylamino)-6-(2-phenoxy-acetylamino)-hexanoic acid]
8 |  |  |  |  | > 100 | > 100 | 9.4 | 63 | 26.5 | CC(C)(C)c1ccc(OCC(=O)NCCCCC(NS(=O)(=O)c2ccc3oc4ccccc4c3c2)C(=O)O)cc1 (stereo not drawn) [Example A10, 6-[2-(4-tert-Butyl-phenoxy)actylamino]-2-(dibenzofuran-2-sulfonylamino)-hexanoic acid]
9 |  |  |  |  | 64.9 | > 100 | 0.6 | 1.7 | 1 | O=C(CC1=CCCC1)NCCCCC(NS(=O)(=O)c1ccc2oc3ccccc3c2c1)C(=O)O (stereo not drawn) [Example A12]
10 |  |  |  |  | > 100 | > 100 | 1.2 | 7.3 | 2.3 | COc1ccc(OCC(=O)NCCCCC(NS(=O)(=O)c2ccc3oc4ccccc4c3c2)C(=O)O)cc1 (stereo not drawn) [Example A13, 2-(Dibenzofuran-2-sulfonylamino)-6-[2-(4-methoxy-phenoxy)-acetylamino]-hexanoic acid]
11 |  |  |  |  | > 100 | > 100 | 7.8 | 42.6 | 5.2 | O=C(COc1cccc2ccccc12)NCCCCC(NS(=O)(=O)c1ccc2oc3ccccc3c2c1)C(=O)O (stereo not drawn) [Example A14, 2-(Dibenzofuran-2-sulfonylamino)-6-[2-(naphthalen-1-yloxy)acetylamino]-hexanoic acid]
12 |  |  |  |  | > 100 | > 100 | 5.5 | 34.4 | 6.5 | Cc1cc(OCCCC(=O)NCCCCC(NS(=O)(=O)c2ccc3oc4ccccc4c3c2)C(=O)O)ccc1Cl (stereo not drawn) [Example A16, 6-[4-(4-Chloro-3-methyl-phenoxy)-butyrylamino]-2-(dibenzofuran-2-sulfonylamino)-hexanoic acid]
13 |  |  |  |  | 53.3 | > 100 | 0.7 | 4.4 | 0.9 | COc1ccc(CCC(=O)NCCCCC(NS(=O)(=O)c2ccc3oc4ccccc4c3c2)C(=O)O)cc1 (stereo not drawn) [Example A17, 2-(Dibenzofuran-2-sulfonylamino)-6-[3-(4-methoxy-phenyl)-propionylamino]-hexanoic acid]
14 |  |  |  |  | 92.9 | > 100 | 1 | 3 | 1.7 | O=C(Cc1ccc2c(c1)OCO2)NCCCCC(NS(=O)(=O)c1ccc2oc3ccccc3c2c1)C(=O)O (stereo not drawn) [Example A19, 6-(2-Benzo[1,3]dioxol-5-yl-acetylamino)-2-(dibenzofuran-2-sulfonylamino)-hexanoic acid]
15 |  |  |  |  | > 100 | > 100 | 3.3 | 9.2 | 7.5 | O=C(CCCc1ccc([N+](=O)[O-])cc1)NCCCCC(NS(=O)(=O)c1ccc2oc3ccccc3c2c1)C(=O)O (stereo not drawn) [Example A21, 2-(Dibenzofuran-2-sulfonylamino)-6-[4-(4-nitro-phenyl)-butyrylamino]-hexanoic acid]
16 |  |  |  |  | > 100 | > 100 | 3 | 10 | 9 | O=C(CCc1ccncc1)NCCCCC(NS(=O)(=O)c1ccc2oc3ccccc3c2c1)C(=O)O (stereo not drawn) [Example A22, 2-(Dibenzofuran-2-sulfonylamino)-6-(3-pyridin4-yl-propionylamino)-hexanoic Acid]
17 |  |  |  |  | > 100 | > 100 | 1.8 | 5.2 | 5.2 | COc1ccccc1CCC(=O)NCCCCC(NS(=O)(=O)c1ccc2oc3ccccc3c2c1)C(=O)O (stereo not drawn) [Example A25]
